In the supplement of paper PMC11061612:

Legend:
[1] = test system: ALL-SIL (T-Lymphoblastic Leukemia); assay: Bliss excess, mean over the matrix (fraction); higher = more synergy
In short: (§1)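 After 24 hours at 37°C and 5% CO2 in 1536-well plates, cells in DMEM/F12 or RPMI plus 10% FBS received two-drug dose matrices for 72 hours. Viability came from CellTiter-Glo 2.0 luminescence and was scaled as inhibition, anchored at 0 by vehicle wells and at 1 by blank wells. Combination Emax is taken as the second-highest inhibition in the matrix, and Bliss excess as the observed combination effect less EA + EB − EA·EB, with EA and EB the single-agent effects.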

[2] = test system: CADO-ES1 (Ewing's Sarcoma); assay: as above
In short: as §1

[3] = test system: EJM (Plasma Cell Myeloma); assay: as above
In short: as §1

EW-1 (Ewing's Sarcoma) [4] = assay: as above
In short: as §1

[5] = test system: G-401 (Other Solid Carcinomas); assay: as above
In short: as §1

[6] = test system: HCC1500 (Breast Carcinoma); assay: as above
In short: as §1

[7] = test system: HCC1937 (Breast Carcinoma); assay: as above
In short: as §1

[8] = test system: HCC2998 (Colorectal Carcinoma); assay: as above
In short: as §1

Hey (Ovarian Carcinoma) [9] = assay: as above
In short: as §1

[10] = test system: KOPN-8 (B-Lymphoblastic Leukemia); assay: as above
In short: as §1

[11] = test system: LC-1-sq (Squamous Cell Lung Carcinoma); assay: as above
In short: as §1

[12] = test system: NCI-H1092 (Small Cell Lung Carcinoma); assay: as above
In short: as §1

[13] = test system: NCI-H1838 (Lung Adenocarcinoma); assay: as above
In short: as §1

[14] = test system: NCI-H2122 (Lung Adenocarcinoma); assay: as above
In short: as §1

[15] = test system: NCI-H650 (Lung Adenocarcinoma); assay: as above
In short: as §1

[16] = test system: OACM5-1 (Esophageal Adenocarcinoma); assay: as above
In short: as §1

[17] = test system: ALL-SIL (T-Lymphoblastic Leukemia); assay: combination Emax (second highest fraction inhibited in the dose matrix, 72 h); higher = more inhibition; extreme values may be limits of the assay
In short: as §1

[18] = test system: CADO-ES1 (Ewing's Sarcoma); assay: as above
In short: as §1

[19] = test system: EJM (Plasma Cell Myeloma); assay: as above
In short: as §1

EW-1 (Ewing's Sarcoma) [20] = assay: as above
In short: as §1

[21] = test system: G-401 (Other Solid Carcinomas); assay: as above
In short: as §1

[22] = test system: HCC1500 (Breast Carcinoma); assay: as above
In short: as §1

[23] = test system: HCC1937 (Breast Carcinoma); assay: as above
In short: as §1

[24] = test system: HCC2998 (Colorectal Carcinoma); assay: as above
In short: as §1

Hey (Ovarian Carcinoma) [25] = assay: as above
In short: as §1

[26] = test system: KOPN-8 (B-Lymphoblastic Leukemia); assay: as above
In short: as §1

[27] = test system: LC-1-sq (Squamous Cell Lung Carcinoma); assay: as above
In short: as §1

[28] = test system: NCI-H1092 (Small Cell Lung Carcinoma); assay: as above
In short: as §1

[29] = test system: NCI-H1838 (Lung Adenocarcinoma); assay: as above
In short: as §1

[30] = test system: NCI-H2122 (Lung Adenocarcinoma); assay: as above
In short: as §1

[31] = test system: NCI-H650 (Lung Adenocarcinoma); assay: as above
In short: as §1

[32] = test system: OACM5-1 (Esophageal Adenocarcinoma); assay: as above
In short: as §1
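For Bliss excess, mean over the matrix in this document: after 72 h of two-drug dosing.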

Row | Compound | Bliss excess [1] | Bliss excess [2] | Bliss excess [3] | Bliss excess (EW-1 (Ewing's Sarcoma) [4]) | Bliss excess [5] | Bliss excess [6] | Bliss excess [7] | Bliss excess [8] | Bliss excess (Hey (Ovarian Carcinoma) [9]) | Bliss excess [10] | Bliss excess [11] | Bliss excess [12] | Bliss excess [13] | Bliss excess [14] | Bliss excess [15] | Bliss excess [16] | combination Emax [17] | combination Emax [18] | combination Emax [19] | combination Emax (EW-1 (Ewing's Sarcoma) [20]) | combination Emax [21] | combination Emax [22] | combination Emax [23] | combination Emax [24] | combination Emax (Hey (Ovarian Carcinoma) [25]) | combination Emax [26] | combination Emax [27] | combination Emax [28] | combination Emax [29] | combination Emax [30] | combination Emax [31] | combination Emax [32]
1 | COc1nnc2ccc(N3CCC(c4ccc(OCCN5CCN(C)C(=O)[C@H]5C)cc4)CC3)nn12 [AZD5153] + CN(CC[C@H](CSC1=CC=CC=C1)NC2=C(C=C(C=C2)S(=O)(=O)NC(=O)C3=CC=C(C=C3)N4CCC(CC4)[C@H](C5=CC=CC=C5C6=CC=C(C=C6)Cl)O)S(=O)(=O)C(F)(F)F)CCO [AZD4320] (first compound max 1 µM, 7x7, partner max 1 µM) | 0.0324 | -0.0641 | 0.106 | 0.0591 | -0.026 | -0.0002 | 0.0178 | -0.0002 | 0.0787 | 0.0349 | 0.0178 | 0.0381 | -0.0272 | -0.0537 | 0.0209 | 0.0552 | 1 | 0.618 | 0.824 | 0.718 | 0.806 | 0.983 | 0.396 | 0.967 | 0.562 | 1 | 0.715 | 0.924 | 0.194 | 0.759 | 0.512 | 0.698
2 | CC(=O)c1c(C)c2cnc(Nc3ccc(N4CCNCC4)cn3)nc2n(C2CCCC2)c1=O [Palbociclib] + CN(CC[C@H](CSC1=CC=CC=C1)NC2=C(C=C(C=C2)S(=O)(=O)NC(=O)C3=CC=C(C=C3)N4CCC(CC4)[C@H](C5=CC=CC=C5C6=CC=C(C=C6)Cl)O)S(=O)(=O)C(F)(F)F)CCO [AZD4320] (first compound max 10 µM, 7x7, partner max 1 µM) | -0.0064 | -0.149 | -0.0016 | -0.0009 | 0.0091 | -0.0551 | -0.0676 | -0.0452 | -0.105 | 0.0277 | -0.0469 | -0.0197 | -0.0748 | -0.0482 | -0.088 | 0.0021 | 1 | 0.76 | 0.56 | 0.884 | 0.974 | 0.985 | 0.504 | 0.934 | 0.357 | 1 | 0.224 | 0.915 | 0.348 | 0.684 | 0.172 | 0.61
3 | C[C@@H](c1ccc2nccn2c1)n1nnc2ncc(-c3cnn(C)c3)nc21 [Savolitinib] + CN(CC[C@H](CSC1=CC=CC=C1)NC2=C(C=C(C=C2)S(=O)(=O)NC(=O)C3=CC=C(C=C3)N4CCC(CC4)[C@H](C5=CC=CC=C5C6=CC=C(C=C6)Cl)O)S(=O)(=O)C(F)(F)F)CCO [AZD4320] (first compound max 1 µM, 7x7, partner max 1 µM) | -0.0135 | 0.0075 | 0.0389 | -0.0384 | -0.0486 | -0.0104 | -0.0666 | -0.0901 | -0.0466 | 0.111 | -0.059 | -0.0878 | -0.01 | -0.0092 | -0.0723 | -0.0435 | 1 | 0.706 | 0.278 | 0.574 | 0.276 | 0.998 | 0.319 | 0.511 | 0.125 | 0.967 | 0.309 | 0.857 | 0.205 | 0.252 | 0.181 | 0.216
